Laboratory results published in article PMC12406203 (Journal of Medicinal Chemistry, 2025).

Tests used:
Assay in all cases: KINOMEscan
Type in all cases: binding
AURKB = molecular target: T1, AURKB (Homo sapiens, UniProt Q96GD4)
T1 construct: purchased Eurofins DiscoverX, LLC; host or cells: E. coli BL21-derived (T7 phage) or HEK-293

CDK3 = molecular target: T2, CDK3 (Homo sapiens, UniProt Q00526)
T2 construct: purchased Eurofins DiscoverX, LLC; host or cells: E. coli BL21-derived (T7 phage) or HEK-293
T2 sequence (Q00526 whole entry): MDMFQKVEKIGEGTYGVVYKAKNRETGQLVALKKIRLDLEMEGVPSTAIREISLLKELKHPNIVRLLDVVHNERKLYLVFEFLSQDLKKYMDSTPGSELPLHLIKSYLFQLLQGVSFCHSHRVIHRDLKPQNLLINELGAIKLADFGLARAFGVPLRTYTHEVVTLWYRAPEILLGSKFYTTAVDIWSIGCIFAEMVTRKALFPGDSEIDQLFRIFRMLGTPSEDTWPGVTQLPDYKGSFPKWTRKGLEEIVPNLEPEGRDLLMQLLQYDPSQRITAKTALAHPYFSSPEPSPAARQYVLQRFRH

DCAMKL1 = molecular target: T3, DCAMKL1 (Homo sapiens, UniProt O15075)
T3 construct: purchased Eurofins DiscoverX, LLC; host or cells: E. coli (T7 phage) or HEK-293
T3 sequence (O15075 1-740): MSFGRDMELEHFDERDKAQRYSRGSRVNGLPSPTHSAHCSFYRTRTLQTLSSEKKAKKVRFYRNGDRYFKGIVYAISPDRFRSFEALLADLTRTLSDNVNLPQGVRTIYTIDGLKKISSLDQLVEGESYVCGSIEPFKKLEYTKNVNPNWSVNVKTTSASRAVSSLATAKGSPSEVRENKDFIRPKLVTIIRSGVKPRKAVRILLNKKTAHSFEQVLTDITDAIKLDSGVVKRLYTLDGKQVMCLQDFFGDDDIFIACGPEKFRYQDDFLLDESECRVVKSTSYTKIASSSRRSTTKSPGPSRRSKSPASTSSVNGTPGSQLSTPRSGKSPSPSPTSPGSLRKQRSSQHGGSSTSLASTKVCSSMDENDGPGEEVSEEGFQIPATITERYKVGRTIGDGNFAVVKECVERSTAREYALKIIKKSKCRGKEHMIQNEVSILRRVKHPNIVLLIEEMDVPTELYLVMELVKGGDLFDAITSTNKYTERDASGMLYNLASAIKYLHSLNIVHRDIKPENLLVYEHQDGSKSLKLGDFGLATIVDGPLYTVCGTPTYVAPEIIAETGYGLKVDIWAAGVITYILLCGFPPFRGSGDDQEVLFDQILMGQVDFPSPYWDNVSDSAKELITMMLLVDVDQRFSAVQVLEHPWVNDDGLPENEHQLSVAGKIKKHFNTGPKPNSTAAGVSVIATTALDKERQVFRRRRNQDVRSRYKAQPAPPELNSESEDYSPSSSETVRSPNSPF

DYRK1B = molecular target: T4, DYRK1B (Homo sapiens, UniProt Q9Y463)
T4 construct: purchased Eurofins DiscoverX, LLC; host or cells: E. coli (T7 phage) or HEK-293
T4 sequence (Q9Y463 whole entry): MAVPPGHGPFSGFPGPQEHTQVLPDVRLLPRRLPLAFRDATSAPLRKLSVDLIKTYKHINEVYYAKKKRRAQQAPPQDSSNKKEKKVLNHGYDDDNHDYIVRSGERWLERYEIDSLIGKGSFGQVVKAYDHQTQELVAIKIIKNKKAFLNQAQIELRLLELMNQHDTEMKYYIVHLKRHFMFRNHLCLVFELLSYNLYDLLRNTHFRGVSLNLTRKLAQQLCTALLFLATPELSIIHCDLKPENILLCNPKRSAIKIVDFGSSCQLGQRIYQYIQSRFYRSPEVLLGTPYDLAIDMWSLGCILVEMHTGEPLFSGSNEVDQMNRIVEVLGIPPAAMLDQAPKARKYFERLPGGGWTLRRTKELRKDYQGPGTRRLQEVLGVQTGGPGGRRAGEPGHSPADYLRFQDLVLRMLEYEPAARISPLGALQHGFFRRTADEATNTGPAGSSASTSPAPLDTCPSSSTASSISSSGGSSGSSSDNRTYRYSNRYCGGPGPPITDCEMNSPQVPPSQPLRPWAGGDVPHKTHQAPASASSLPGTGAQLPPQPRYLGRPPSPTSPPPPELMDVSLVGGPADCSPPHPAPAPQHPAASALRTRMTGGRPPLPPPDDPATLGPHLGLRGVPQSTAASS

EGFR(L858R) = molecular target: T5, EGFR(L858R) (Homo sapiens, UniProt P00533, L858R)
T5 construct: purchased Eurofins DiscoverX, LLC; host or cells: E. coli (T7 phage) or HEK-293

FGFR3 = molecular target: T6, FGFR3 (Homo sapiens, UniProt P22607)
T6 construct: purchased Eurofins DiscoverX, LLC; host or cells: E. coli (T7 phage) or HEK-293

JNK1 = molecular target: T7, JNK1 (Homo sapiens, UniProt P45983)
T7 construct: purchased Eurofins DiscoverX, LLC; host or cells: E. coli (BL21-derived, T7 phage) or HEK-293
T7 sequence (P45983 whole entry): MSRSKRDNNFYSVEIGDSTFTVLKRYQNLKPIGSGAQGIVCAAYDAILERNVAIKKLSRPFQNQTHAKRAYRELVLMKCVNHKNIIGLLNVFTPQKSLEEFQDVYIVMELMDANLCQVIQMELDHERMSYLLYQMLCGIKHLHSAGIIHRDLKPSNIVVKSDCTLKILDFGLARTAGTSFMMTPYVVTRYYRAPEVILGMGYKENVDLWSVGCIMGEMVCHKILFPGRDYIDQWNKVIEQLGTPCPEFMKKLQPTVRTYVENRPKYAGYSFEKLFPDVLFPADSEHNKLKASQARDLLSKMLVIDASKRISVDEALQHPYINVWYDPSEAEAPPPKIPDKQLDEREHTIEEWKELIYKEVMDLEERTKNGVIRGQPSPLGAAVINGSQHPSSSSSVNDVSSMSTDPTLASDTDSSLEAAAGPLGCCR

KIT(D816V) = molecular target: T8, KIT(D816V) (Homo sapiens, UniProt P10721, D816V)
T8 construct: purchased Eurofins DiscoverX, LLC; host or cells: E. coli (BL21-derived, T7 phage) or HEK-293
T8 sequence (P10721 26-976 D816V): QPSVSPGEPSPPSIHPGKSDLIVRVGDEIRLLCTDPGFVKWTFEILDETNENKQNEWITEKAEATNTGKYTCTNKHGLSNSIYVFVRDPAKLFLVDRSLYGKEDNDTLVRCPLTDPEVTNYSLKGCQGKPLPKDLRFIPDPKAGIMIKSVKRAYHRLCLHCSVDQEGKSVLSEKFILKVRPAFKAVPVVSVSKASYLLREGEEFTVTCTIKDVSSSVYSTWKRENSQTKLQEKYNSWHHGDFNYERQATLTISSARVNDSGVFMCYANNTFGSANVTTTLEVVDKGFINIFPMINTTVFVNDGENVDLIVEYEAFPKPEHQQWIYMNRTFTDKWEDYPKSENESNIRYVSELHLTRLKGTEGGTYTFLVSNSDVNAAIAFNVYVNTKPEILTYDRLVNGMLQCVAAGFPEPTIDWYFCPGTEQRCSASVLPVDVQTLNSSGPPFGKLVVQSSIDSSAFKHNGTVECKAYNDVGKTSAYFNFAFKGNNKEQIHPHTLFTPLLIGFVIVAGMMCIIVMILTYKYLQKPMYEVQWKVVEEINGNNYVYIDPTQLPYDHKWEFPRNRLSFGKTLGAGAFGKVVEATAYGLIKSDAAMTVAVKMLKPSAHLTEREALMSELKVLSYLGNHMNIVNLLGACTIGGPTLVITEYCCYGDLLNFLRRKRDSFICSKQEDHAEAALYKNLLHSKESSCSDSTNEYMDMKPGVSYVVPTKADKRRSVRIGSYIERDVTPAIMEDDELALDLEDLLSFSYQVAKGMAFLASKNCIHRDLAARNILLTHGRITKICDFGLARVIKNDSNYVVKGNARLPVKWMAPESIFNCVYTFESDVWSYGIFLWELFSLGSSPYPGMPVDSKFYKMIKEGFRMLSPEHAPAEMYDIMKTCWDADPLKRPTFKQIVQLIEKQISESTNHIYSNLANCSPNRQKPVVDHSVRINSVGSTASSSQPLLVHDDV

LCK = molecular target: T9, LCK (Homo sapiens, UniProt P06239)
T9 construct: purchased Eurofins DiscoverX, LLC; host or cells: E. coli (BL21-derived, T7 phage) or HEK-293
T9 sequence (P06239 whole entry): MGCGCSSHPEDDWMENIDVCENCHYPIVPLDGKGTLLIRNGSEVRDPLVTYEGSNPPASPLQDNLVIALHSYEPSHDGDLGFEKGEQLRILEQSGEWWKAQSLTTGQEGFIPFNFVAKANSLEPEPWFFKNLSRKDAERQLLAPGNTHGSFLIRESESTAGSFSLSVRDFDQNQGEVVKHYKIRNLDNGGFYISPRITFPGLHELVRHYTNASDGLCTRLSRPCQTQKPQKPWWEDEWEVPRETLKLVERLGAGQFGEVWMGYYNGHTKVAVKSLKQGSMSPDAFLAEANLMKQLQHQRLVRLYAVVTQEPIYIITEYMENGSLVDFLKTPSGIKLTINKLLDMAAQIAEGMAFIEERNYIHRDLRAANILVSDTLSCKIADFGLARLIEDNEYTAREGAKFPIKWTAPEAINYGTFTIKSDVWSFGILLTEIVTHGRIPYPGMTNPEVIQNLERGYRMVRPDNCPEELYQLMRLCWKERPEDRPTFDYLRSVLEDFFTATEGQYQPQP

MAPKAPK2 = molecular target: T10, MAPKAPK2 (Homo sapiens, UniProt P49137)
T10 construct: purchased Eurofins DiscoverX, LLC; host or cells: E. coli (BL21-derived, T7 phage) or HEK-293
T10 sequence (P49137 whole entry): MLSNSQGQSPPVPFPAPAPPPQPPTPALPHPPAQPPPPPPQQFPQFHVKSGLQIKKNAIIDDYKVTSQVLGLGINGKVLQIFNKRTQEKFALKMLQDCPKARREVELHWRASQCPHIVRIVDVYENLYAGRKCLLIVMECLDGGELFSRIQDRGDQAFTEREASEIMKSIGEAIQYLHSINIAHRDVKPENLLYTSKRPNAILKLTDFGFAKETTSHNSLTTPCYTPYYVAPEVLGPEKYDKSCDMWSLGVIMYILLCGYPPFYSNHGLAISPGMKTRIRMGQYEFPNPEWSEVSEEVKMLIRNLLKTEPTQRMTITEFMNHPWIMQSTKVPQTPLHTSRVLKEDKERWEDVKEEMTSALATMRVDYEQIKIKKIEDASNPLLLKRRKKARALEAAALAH

MAPKAPK5 = molecular target: T11, MAPKAPK5 (Homo sapiens, UniProt Q8IW41)
T11 construct: purchased Eurofins DiscoverX, LLC; host or cells: E. coli (BL21-derived, T7 phage) or HEK-293
T11 sequence (Q8IW41 1-473): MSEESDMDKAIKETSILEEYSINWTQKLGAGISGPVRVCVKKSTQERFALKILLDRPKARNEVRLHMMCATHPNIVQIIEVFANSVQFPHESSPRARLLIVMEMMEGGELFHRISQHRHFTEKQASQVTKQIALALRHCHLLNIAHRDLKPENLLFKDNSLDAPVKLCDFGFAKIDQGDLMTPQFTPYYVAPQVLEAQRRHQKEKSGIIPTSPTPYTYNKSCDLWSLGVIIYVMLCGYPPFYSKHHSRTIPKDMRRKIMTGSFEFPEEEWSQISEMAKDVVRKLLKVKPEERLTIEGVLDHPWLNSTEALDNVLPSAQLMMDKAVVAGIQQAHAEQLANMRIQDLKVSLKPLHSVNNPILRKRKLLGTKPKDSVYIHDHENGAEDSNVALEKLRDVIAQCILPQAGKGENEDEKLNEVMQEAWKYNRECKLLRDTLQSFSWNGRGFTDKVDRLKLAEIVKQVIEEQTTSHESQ

MEK2 = molecular target: T12, MEK2 (Homo sapiens, UniProt P36507)
T12 construct: purchased Eurofins DiscoverX, LLC; host or cells: E. coli (BL21-derived, T7 phage) or HEK-293
T12 sequence (P36507 whole entry): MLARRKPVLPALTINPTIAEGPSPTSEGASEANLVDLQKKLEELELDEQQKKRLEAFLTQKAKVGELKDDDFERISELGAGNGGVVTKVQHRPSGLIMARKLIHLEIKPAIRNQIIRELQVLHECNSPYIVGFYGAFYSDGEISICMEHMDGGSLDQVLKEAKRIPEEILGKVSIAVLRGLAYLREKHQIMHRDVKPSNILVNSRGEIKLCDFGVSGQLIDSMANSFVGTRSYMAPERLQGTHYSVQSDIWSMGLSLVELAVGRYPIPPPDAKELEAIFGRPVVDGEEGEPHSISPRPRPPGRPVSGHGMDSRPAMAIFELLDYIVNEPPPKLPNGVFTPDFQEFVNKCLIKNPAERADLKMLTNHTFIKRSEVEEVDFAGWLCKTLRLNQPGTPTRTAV

[1] = molecular target: T13, RSK2 (Kin.Dom.1-N-terminal) (Homo sapiens, UniProt P51812)
T13 construct: RSK2 (Kin.Dom.1-; purchased Eurofins DiscoverX, LLC; host or cells: E. coli BL21-derived host (T7 phage) or HEK-293
T13 sequence (P51812 68-327 limits assumed): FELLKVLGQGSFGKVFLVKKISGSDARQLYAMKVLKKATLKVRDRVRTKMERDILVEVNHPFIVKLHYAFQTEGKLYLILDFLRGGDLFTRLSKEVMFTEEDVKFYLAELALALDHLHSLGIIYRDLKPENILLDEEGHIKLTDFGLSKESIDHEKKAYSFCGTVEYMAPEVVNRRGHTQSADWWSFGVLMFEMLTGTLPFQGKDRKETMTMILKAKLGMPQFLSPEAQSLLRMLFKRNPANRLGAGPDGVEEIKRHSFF

p38α = molecular target: T14, p38α (Homo sapiens, UniProt Q16539)
T14 construct: purchased Eurofins DiscoverX, LLC; host or cells: E. coli (BL21-derived, T7 phage) or HEK-293
T14 sequence (Q16539 whole entry): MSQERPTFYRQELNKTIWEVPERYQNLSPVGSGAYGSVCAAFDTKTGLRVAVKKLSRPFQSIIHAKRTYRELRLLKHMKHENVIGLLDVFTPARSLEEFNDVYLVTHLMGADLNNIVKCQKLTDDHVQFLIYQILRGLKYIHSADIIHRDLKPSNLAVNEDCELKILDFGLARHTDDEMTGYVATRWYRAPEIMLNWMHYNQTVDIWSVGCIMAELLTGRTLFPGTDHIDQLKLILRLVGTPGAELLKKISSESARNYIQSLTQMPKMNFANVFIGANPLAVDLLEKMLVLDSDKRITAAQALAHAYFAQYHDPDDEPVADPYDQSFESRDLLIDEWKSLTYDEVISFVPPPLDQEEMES

T1 sequence (Q96GD4 whole entry): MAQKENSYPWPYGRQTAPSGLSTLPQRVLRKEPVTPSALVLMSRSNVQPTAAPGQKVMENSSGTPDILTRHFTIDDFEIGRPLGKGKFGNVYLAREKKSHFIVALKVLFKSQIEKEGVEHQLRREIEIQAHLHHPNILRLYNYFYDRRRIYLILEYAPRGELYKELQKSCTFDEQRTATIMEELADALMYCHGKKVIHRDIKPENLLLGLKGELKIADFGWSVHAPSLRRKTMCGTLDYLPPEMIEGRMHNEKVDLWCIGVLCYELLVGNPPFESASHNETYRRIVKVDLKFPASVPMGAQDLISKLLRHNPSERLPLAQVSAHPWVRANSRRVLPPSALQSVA

SMILES	RA @ 1000nM (AURKB) [%]	RA @ 10000nM (AURKB) [%]	RA @ 1000nM (CDK3) [%]	RA @ 10000nM (CDK3) [%]	RA @ 1000nM (DCAMKL1) [%]	RA @ 10000nM (DCAMKL1) [%]	RA @ 1000nM (DYRK1B) [%]	RA @ 10000nM (DYRK1B) [%]	RA @ 1000nM (EGFR(L858R)) [%]	RA @ 10000nM (EGFR(L858R)) [%]	RA @ 1000nM (FGFR3) [%]	RA @ 10000nM (FGFR3) [%]	RA @ 1000nM (JNK1) [%]	RA @ 10000nM (JNK1) [%]	RA @ 1000nM (KIT(D816V)) [%]	RA @ 10000nM (KIT(D816V)) [%]	RA @ 1000nM (LCK) [%]	RA @ 10000nM (LCK) [%]	RA @ 1000nM (MAPKAPK2) [%]	RA @ 10000nM (MAPKAPK2) [%]	also measured
CC(C)Cn1ncc2cc(Cc3ccc(F)cc3F)c(C(=O)NCCN(C)C)cc21 [Compound 94, 5-(2,4-Difluorobenzyl)-N-(2-(dimethylamino)ethyl)-1-isobutyl-1H-indazole-6-carboxamide]	84	68	100	1.3	100	100	100	85	100	66	100	100	77	41	94	100	100	97	100	84	RA @ 1000nM (MAPKAPK5): 100%; RA @ 10000nM (MAPKAPK5): 100%; RA @ 1000nM (MEK2): 86%; RA @ 10000nM (MEK2): 80%; RA @ 1000nM [1]: 86%; RA @ 10000nM [1]: 65%; RA @ 1000nM (p38α): 2.3%; RA @ 10000nM (p38α): 0.4%
CN(C)CCNC(=O)c1cc2c(cnn2CC2CCCCC2)cc1Cc1ccc(F)cc1F [Compound 95, 1-(Cyclohexylmethyl)-5-(2,4-difluorobenzyl)-N-(2-(dimethylamino)ethyl)-1H-indazole-6-carboxamide]	99	71	100	100	100	100	95	100	100	100	100	92	100	27	96	94	94	100	100	100	RA @ 1000nM (MAPKAPK5): 100%; RA @ 10000nM (MAPKAPK5): 100%; RA @ 1000nM (MEK2): 95%; RA @ 10000nM (MEK2): 100%; RA @ 1000nM [1]: 94%; RA @ 10000nM [1]: 94%; RA @ 1000nM (p38α): 6.7%; RA @ 10000nM (p38α): 0.1%
